Legend:
[1] = biological target: T1, vanilloid receptor 1 (VR1/TRPV1 receptor) (Homo sapiens, UniProt Q8NER1); experiment: FLIPR Ca2+ influx assay, capsaicin stimulus, CHO K1 cells transfected with human VR1 gene; format: cell-based, human being; conditions: for inhibition at 5 µM: CHO-K1, @ 5 μM, read-out: inhibition (as a percentage), (f) Ki (human being) Cap column; for (f) Ki (human being) [nM] Cap / Ki: functional, NE=no effect; for Ki: read-out: (f) Ki (human being) [nM] Cap
T1 construct: expressed in transfected cells; host or cells: CHO K1 cells (ECACC), stably transfected
Procedure: Furthermore, preference may be given to compounds according to the invention of general formula (I) that cause a 50 percent displacement of capsaicin, which is present at a concentration of 100 nM, in a FLIPR assay with CHO K1 cells which were transfected with the human VR1 gene at a concentration of less than 2,000 nM, preferably less than 1,000 nM, particularly preferably less than 300 nM, most particularly preferably less than 100 nM, even more preferably less than 75 nM, additionally preferably less than 50 nM, most preferably less than 10 nM.
In the process, the Ca^2+ influx is quantified in the FLIPR assay with the aid of a Ca^2+-sensitive dye (type Fluo-4, Molecular Probes Europe BV, Leiden, the Netherlands) in a fluorescent imaging plate reader (FLIPR, Molecular Devices, Sunnyvale, USA), as described hereinafter.
(§1) The agonistic or antagonistic effect of the substances to be tested on the vanilloid receptor 1 (VR1) can also be determined using the following assay. In this assay, the influx of Ca^2+ through the channel is quantified with the aid of a Ca^2+-sensitive dye (type Fluo-4, Molecular Probes Europe BV, Leiden, the Netherlands) in a fluorescent imaging plate reader (FLIPR, Molecular Devices, Sunnyvale, USA).
(§2) Chinese hamster ovary cells (CHO K1 cells, European Collection of Cell Cultures (ECACC) United Kingdom) are stably transfected with the VR1 gene. For functional testing, these cells are plated out on poly-D-lysine-coated black 96-well plates having a clear base (BD Biosciences, Heidelberg, Germany) at a density of 25,000 cells/well. The cells are incubated overnight at 37° C. and 5% CO2 in a culture medium (Ham's F12 nutrient mixture, 10% by volume of FCS (foetal calf serum), 18 μg/ml of L-proline). The next day the cells are incubated with Fluo-4 (Fluo-4 2 μM, 0.01% by volume of Pluronic F127, Molecular Probes in HBSS (Hank's buffered saline solution), Gibco Invitrogen GmbH, Karlsruhe, Germany) for 30 minutes at 37° C. Subsequently, the plates are washed three times with HBSS buffer and after further incubation for 15 minutes at RT used for Ca^2+ measurement in a FLIPR assay. The Ca^2+-dependent fluorescence is measured before and after the addition of the substances to be tested (λex wavelength=488 nm, λem=540 nm). Quantification is carried out by measuring the highest fluorescence intensity (FC, fluorescence counts) over time.
The FLIPR protocol consists of 2 substance additions. First the compounds to be tested (10 μM) are pipetted onto the cells and the Ca^2+ influx is compared with the control (capsaicin 10 μM) (% activation based on the Ca^2+ signal after the addition of 10 μM of capsaicin). After 5 minutes' incubation, 100 nM of capsaicin are applied and the Ca^2+ influx is also determined.
Desensitising agonists and antagonists led to suppression of the Ca^2+ influx. The % inhibition is calculated compared to the maximum achievable inhibition with 10 μM of capsaicin.
Starting from the percentage displacement caused by different concentrations of the compounds to be tested of general formula I, IC50 inhibitory concentrations which cause a 50-percent displacement of capsaicin were calculated. K, values for the test substances were obtained by conversion by means of the Cheng-Prusoff equation (Cheng, Prusoff; Biochem. Pharmacol. 22, 3099-3108, 1973).

[2] = biological target: T1, vanilloid receptor 1 (VR1/TRPV1 receptor); experiment: Functional VR1 assay, heat stimulus 45° C.; format: cell-based, human being; conditions: human VR1, heat stimulus 45° C.
Description: as §1
as §2, with “Subsequently, the plates are washed three times with HBSS buffer and after further incubation for 15 minutes at RT used for Ca^2+ measurement in a FLIPR assay.” left out

[3] = biological target: T2, vanilloid receptor 1 (VR1/TRPV1 receptor) (Mus musculus, UniProt Q704Y3); experiment: FLIPR Ca2+ influx assay, capsaicin stimulus, mouse VR1; format: cell-based; conditions: functional, read-out: (f) Ki (mouse) [nM] Cap
T2 construct: expressed in transfected cells; host or cells: CHO K1 cells stably transfected (inferred from method II)
Description: as §1
Chinese hamster ovary cells (CHO K1 cells, European Collection of Cell Cultures (ECACC) United Kingdom) are stably transfected with the VR1 gene. For functional testing, these cells are plated out on poly-D-lysine-coated black 96-well plates having a clear base (BD Biosciences, Heidelberg, Germany) at a density of 25,000 cells/well. […] The Ca^2+-dependent fluorescence is measured before and after the addition of the substances to be tested (λex wavelength=488 nm, λem=540 nm). Quantification is carried out by measuring the highest fluorescence intensity (FC, fluorescence counts) over time.
The FLIPR protocol consists of 2 substance additions. […] After 5 minutes' incubation, 100 nM of capsaicin are applied and the Ca^2+ influx is also determined. […]
Starting from the percentage displacement caused by different concentrations of the compounds to be tested of general formula I, IC50 inhibitory concentrations which cause a 50-percent displacement of capsaicin were calculated. […]

T1 sequence (Q8NER1 whole entry): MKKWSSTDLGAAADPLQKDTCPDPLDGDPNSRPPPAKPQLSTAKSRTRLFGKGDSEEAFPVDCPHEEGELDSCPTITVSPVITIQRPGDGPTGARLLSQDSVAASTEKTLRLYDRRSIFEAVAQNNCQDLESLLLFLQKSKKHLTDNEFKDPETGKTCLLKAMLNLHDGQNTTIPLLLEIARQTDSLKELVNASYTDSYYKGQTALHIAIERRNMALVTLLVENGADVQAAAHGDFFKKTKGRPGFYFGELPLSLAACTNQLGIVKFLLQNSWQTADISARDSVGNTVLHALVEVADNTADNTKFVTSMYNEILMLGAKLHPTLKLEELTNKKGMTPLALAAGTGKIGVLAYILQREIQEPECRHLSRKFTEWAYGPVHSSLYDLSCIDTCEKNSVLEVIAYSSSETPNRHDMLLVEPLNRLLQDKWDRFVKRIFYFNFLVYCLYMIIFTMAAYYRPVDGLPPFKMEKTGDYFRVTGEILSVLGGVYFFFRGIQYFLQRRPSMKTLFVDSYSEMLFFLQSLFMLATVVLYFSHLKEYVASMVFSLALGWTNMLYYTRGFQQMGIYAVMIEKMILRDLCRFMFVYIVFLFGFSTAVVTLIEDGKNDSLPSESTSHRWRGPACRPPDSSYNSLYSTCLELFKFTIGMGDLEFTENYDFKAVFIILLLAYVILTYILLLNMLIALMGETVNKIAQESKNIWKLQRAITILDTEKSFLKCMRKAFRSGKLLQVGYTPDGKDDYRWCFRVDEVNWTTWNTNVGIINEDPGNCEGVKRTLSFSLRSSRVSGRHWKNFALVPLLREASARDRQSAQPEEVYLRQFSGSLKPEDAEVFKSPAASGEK
T2 sequence (Q704Y3 whole entry): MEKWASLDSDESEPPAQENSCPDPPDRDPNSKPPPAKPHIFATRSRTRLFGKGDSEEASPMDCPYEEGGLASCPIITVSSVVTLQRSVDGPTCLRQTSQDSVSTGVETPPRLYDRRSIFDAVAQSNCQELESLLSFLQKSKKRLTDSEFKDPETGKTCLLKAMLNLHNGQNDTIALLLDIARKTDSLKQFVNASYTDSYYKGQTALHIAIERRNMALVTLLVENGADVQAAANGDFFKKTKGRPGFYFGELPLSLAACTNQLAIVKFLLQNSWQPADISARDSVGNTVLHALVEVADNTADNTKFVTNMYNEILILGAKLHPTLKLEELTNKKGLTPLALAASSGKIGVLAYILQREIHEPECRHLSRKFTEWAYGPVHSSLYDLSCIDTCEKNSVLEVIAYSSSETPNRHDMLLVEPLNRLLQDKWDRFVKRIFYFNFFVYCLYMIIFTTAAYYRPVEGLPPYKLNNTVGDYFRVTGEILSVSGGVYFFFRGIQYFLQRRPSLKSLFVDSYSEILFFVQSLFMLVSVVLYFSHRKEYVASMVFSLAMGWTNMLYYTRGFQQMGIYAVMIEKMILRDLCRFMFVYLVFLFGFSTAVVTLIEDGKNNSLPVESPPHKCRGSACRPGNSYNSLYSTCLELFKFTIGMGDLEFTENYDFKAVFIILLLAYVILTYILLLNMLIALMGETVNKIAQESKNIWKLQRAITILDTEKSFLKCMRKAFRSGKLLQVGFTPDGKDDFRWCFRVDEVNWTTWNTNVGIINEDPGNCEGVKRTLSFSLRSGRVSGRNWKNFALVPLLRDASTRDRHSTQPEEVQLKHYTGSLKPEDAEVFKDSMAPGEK

Molecule: CC(C)(C)c1ccc2c(c1)CC[C@H]2NC(=O)NCc1cc(C(F)(F)F)nn1-c1cccc(Cl)c1 [Example 2, (R)-1-(5-tert-butyl-2,3-dihydro-1H-inden-1-yl)-3-((1-(3-chlorophenyl)-3-(trifluoromethyl)-1H-pyrazol-5-yl)methyl)urea]
- inhibition at 5 µM [1]: 33%

Molecule: CC(C)(C)c1ccc2c(c1)CC[C@@H]2NC(=O)NCc1cc(C(F)(F)F)nn1-c1cccc(Cl)c1 [Example 3, (S)-1-(5-tert-butyl-2,3-dihydro-1H-inden-1-yl)-3-((1-(3-chlorophenyl)-3-(trifluoromethyl)-1H-pyrazol-5-yl)methyl)urea]
- (f) Ki (human being) [nM] Cap [1]: Ne

Molecule: CC(C)(C)c1ccc2c(c1)C[C@H](NC(=O)NCc1cc(C(C)(C)C)nn1-c1cccc(Cl)c1)C2 [Example 4, (R)-1-((3-tert-butyl-1-(3-chlorophenyl)-1H-pyrazol-5-yl)methyl)-3-(5-tert-butyl-2,3-dihydro-1H-inden-2-yl)ure]
- (f) Ki (human being) [nM] Cap [1]: Ne

Molecule: Cn1ncc2c1CCCC2NC(=O)NCc1cc(C(F)(F)F)nn1-c1cccc(Cl)c1 (stereo not drawn) [Example 7, 1-((1-(3-chlorophenyl)-3-(trifluoromethyl)-1H-pyrazol-5-yl)methyl)-3-(1-methyl-4,5,6,7-tetrahydro-1H-indazol-4-yl)urea]
- (f) Ki (human being) [nM] Cap [1]: Ne

Molecule: CC(C(=O)NCc1cc(C(F)(F)F)nn1-c1cccc(Cl)c1)C1CCCc2ccc(O)cc21 (stereo not drawn) [Example 12, N-((1-(3-chlorophenyl)-3-(trifluoromethyl)-1H-pyrazol-5-yl)methyl)-2-(7-hydroxy-1,2,3,4-tetrahydronaphthalen-1-yl)propanamide]
- Ki [1]: 49.2 nM
- inhibition at 2.5 µM ([2]; @ 2.5 μM, read-out: inhibition (as a percentage), IC50 (human being) 45° C. column): 30%

Molecule: O=C(NCc1cc(C(F)(F)F)nn1-c1cccc(Cl)c1)NC1CCCc2ccc(O)cc21 (stereo not drawn) [Example 13, 1-((1-(3-chlorophenyl)-3-(trifluoromethyl)-1H-pyrazol-5-yl)methyl)-3-(7-hydroxy-1,2,3,4-tetrahydronaphthalen-1-yl)urea]
- Ki [1]: 16.1 nM
- IC50 ([2]; read-out: IC50 (human being) [nM], 45° C.): 1860 nM

Molecule: CC(C)(C)c1cc(CNC(=O)NC2CCCc3ccc(O)cc32)n(-c2cccc(Cl)c2)n1 (stereo not drawn) [Example 14, 1-((3-tert-butyl-1-(3-chlorophenyl)-1H-pyrazol-5-yl)methyl)-3-(7-hydroxy-1,2,3,4-tetrahydronaphthalen-1-yl)urea]
- Ki [1]: 7.7 nM
- Ki [3]: 132 nM

Molecule: CC(C(=O)NCc1cc(C(F)(F)F)nn1-c1ccc(F)c(Cl)c1)C1CCCc2ccc(O)cc21 (stereo not drawn) [Example 15, N-((1-(3-chloro-4-fluorophenyl)-3-(trifluoromethyl)-1H-pyrazol-5-yl)methyl)-2-(7-hydroxy-1,2,3,4-tetrahydronaphthalen-1-yl)propanamide]
- Ki [1]: 29.5 nM

Molecule: O=C(NCc1cc(C(F)(F)F)nn1-c1cccc(Cl)c1)NC1CCCc2cnccc21 (stereo not drawn) [Example 19, 1-((1-(3-chlorophenyl)-3-(trifluoromethyl)-1H-pyrazol-5-yl)methyl)-3-(5,6,7,8-tetrahydroisoquinolin-5-yl)urea]
- inhibition at 5 µM [1]: 38%

Molecule: CC(C)(C)c1cc(CNC(=O)NC2CCCc3cnccc32)n(-c2cccc(Cl)c2)n1 (stereo not drawn) [Example 20, 1-((3-tert-butyl-1-(3-chlorophenyl)-1H-pyrazol-5-yl)methyl)-3-(5,6,7,8-tetrahydroisoquinolin-5-yl)urea]
- Ki [1]: 73.6 nM

Molecule: N-((1-(3-chlorophenyl)-3-(trifluoromethyl)-1H-pyrazol-5-yl)methyl)-2-(7-hydroxy-1,2,3,4-tetrahydronaphthalen-1-yl)propanamide [Example 10]
- inhibition (as a percentage), (f) Ki (human being) Cap column ([1]; @ 1 μM): 14% @ 1 μM
- inhibition (as a percentage), (f) Ki (human being) Cap column ([1]; @ 5 μM): 34% @ 5 μM

— patent US20120115893A1, “Substituted Bicyclic Carboxamide and Urea Compounds as Vanilloid Receptor Ligands” (Gruenenthal GmbH, priority 2010, published 2012)
